Results: the supplement of paper PMC6045584
± gives the standard deviation of the averaged measurements.

Assays:
MDV3100 = compound: CNC(=O)c1ccc(N2C(=S)N(c3ccc(C#N)c(C(F)(F)F)c3)C(=O)C2(C)C)cc1F [MDV3100]; assay: surviving fraction relative to DMSO-only wells; higher = less growth inhibition; details: exposure time: 5 days
Outline: (§1)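 Log-phase tumour cell lines, 250–500 cells per well in 384-well plates, received inhibitors at 0.5, 1, 5, 10, 50, 100, 500 and 1000 nM continuously for five days, starting 24 hours after seeding. Viability was quantified with CellTiter-Glo luminescence and normalised to the median of DMSO-only wells to give surviving fraction. Three screens were run per line, and a line stayed in only with replicate Pearson r >0.7 and median Z' >0.3.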

[1] = compound: Cn1cc(C2=Nc3cc(NC(=O)C(N)C4CCCCC4)cc4c3C2=CNNC4=O)cn1; assay: as above; details: exposure time: 5 days
Outline: as §1

Row | Test System | surviving fraction (MDV3100; 0.5 nM) | surviving fraction (MDV3100; 1 nM) | surviving fraction (MDV3100; 5 nM) | surviving fraction (MDV3100; 10 nM) | surviving fraction (MDV3100; 50 nM) | surviving fraction (MDV3100; 100 nM) | surviving fraction (MDV3100; 500 nM) | surviving fraction (MDV3100; 1000 nM) | surviving fraction ([1]; 0.5 nM) | surviving fraction ([1]; 1 nM) | surviving fraction ([1]; 5 nM) | surviving fraction ([1]; 10 nM) | surviving fraction ([1]; 50 nM) | surviving fraction ([1]; 100 nM) | surviving fraction ([1]; 500 nM) | surviving fraction ([1]; 1000 nM)
1 | COLO320DM LARGE INTESTINE | 1.18 ± 0.14 | 0.995 ± 0.087 | 1.13 ± 0.022 | 0.533 ± 0.021 | 1.13 ± 0.086 | 1.042 ± 0.0052 | 1.12 ± 0.057 | 0.754 ± 0.052 | 0.957 ± 0.12 | 1.09 ± 0.15 | 0.97 ± 0.076 | 1.08 ± 0.11 | 1.01 ± 0.23 | 0.954 ± 0.098 | 0.877 ± 0.13 | 0.664 ± 0.053
2 | NOS1 BONE | 1.18 ± 0.11 | 1 ± 0.043 | 1.11 ± 0.069 | 1.1 ± 0.2 | 1.04 ± 0.062 | 1.16 ± 0.086 | 0.972 ± 0.073 | 1.03 ± 0.027 | 1 ± 0.16 | 0.948 ± 0.081 | 1.11 ± 0.1 | 1.05 ± 0.1 | 0.813 ± 0.075 | 0.872 ± 0.064 | 0.339 ± 0.009 | 0.195 ± 0.013
3 | KPD BONE | 0.955 ± 0.071 | 0.975 ± 0.023 | 0.997 ± 0.048 | 0.985 ± 0.044 | 1.04 ± 0.058 | 1.04 ± 0.067 | 0.977 ± 0.19 | 0.938 ± 0.015 | 0.953 ± 0.041 | 0.891 ± 0.018 | 1.19 ± 0.24 | 0.977 ± 0.026 | 0.84 ± 0.028 | 0.389 ± 0.021 | 0.0873 ± 0.0023 | 0.0763 ± 0.008
4 | HMT3552 BREAST | 1.02 ± 0.073 | 1.02 ± 0.079 | 1.02 ± 0.013 | 1.03 ± 0.065 | 1.14 ± 0.031 | 1.23 ± 0.023 | 1.18 ± 0.053 | 1.24 ± 0.086 | 0.92 | 1.07 | 1.02 | 0.936 | 0.999 | 1.03 | 0.176 | 0.097
5 | HMLE3 BREAST | 0.981 ± 0.05 | 0.951 ± 0.018 | 0.984 ± 0.026 | 0.946 ± 0.049 | 0.975 ± 0.12 | 1 ± 0.09 | 0.98 ± 0.058 | 1.03 ± 0.083 | 1.02 ± 0.013 | 0.984 ± 0.069 | 1.01 ± 0.069 | 1.05 ± 0.1 | 0.928 ± 0.015 | 0.924 ± 0.05 | 0.319 ± 0.049 | 0.0807 ± 0.0095
6 | CAL51 BREAST | 0.969 ± 0.025 | 0.944 ± 0.014 | 0.985 ± 0.016 | 0.976 ± 0.013 | 0.984 ± 0.029 | 1.05 ± 0.042 | 0.978 ± 0.11 | 0.979 ± 0.082 | 0.889 ± 0.037 | 0.973 ± 0.041 | 0.945 ± 0.052 | 0.903 ± 0.037 | 0.962 ± 0.079 | 0.875 ± 0.048 | 0.484 ± 0.0085 | 0.276 ± 0.026
7 | JURKAT HAEMATOPOIETIC AND LYMPHOID TISSUE | 1.095 ± 0.0049 | 1.1 ± 0.02 | 1.09 ± 0.022 | 1.06 ± 0.018 | 1.05 ± 0.015 | 1.06 ± 0.031 | 1 ± 0.027 | 0.997 ± 0.039 | 1.08 ± 0.016 | 1.13 ± 0.013 | 1.07 ± 0.021 | 1.06 ± 0.036 | 0.868 ± 0.019 | 0.295 ± 0.022 | 0.023 | 0.0237 ± 0.00058
8 | MDAMB468 BREAST | 0.972 ± 0.053 | 0.952 ± 0.072 | 1.05 ± 0.11 | 1.01 ± 0.068 | 1.14 ± 0.094 | 1.04 ± 0.13 | 1.05 ± 0.038 | 0.97 ± 0.11 | 0.95 ± 0.0069 | 0.975 ± 0.067 | 0.984 ± 0.049 | 0.978 ± 0.031 | 0.858 ± 0.025 | 0.786 ± 0.11 | 0.151 ± 0.0051 | 0.0767 ± 0.0046
9 | CASKI CERVIX | 0.904 ± 0.031 | 0.894 ± 0.047 | 0.99 ± 0.026 | 0.903 ± 0.059 | 0.944 ± 0.022 | 1.08 ± 0.073 | 0.95 ± 0.046 | 0.992 ± 0.072 | 0.918 ± 0.028 | 0.962 ± 0.082 | 0.92 ± 0.028 | 0.949 ± 0.038 | 0.511 ± 0.043 | 0.251 ± 0.071 | 0.057 ± 0.0095 | 0.0573 ± 0.0038
10 | MG63 BONE | 0.988 ± 0.0044 | 0.953 ± 0.026 | 1.01 ± 0.015 | 0.999 ± 0.028 | 1.02 ± 0.013 | 1.02 ± 0.019 | 0.968 ± 0.03 | 0.931 ± 0.011 | 0.99 ± 0.033 | 1.02 ± 0.021 | 1.03 ± 0.024 | 1.05 ± 0.047 | 1.02 ± 0.058 | 0.822 ± 0.0046 | 0.0643 ± 0.0084 | 0.101 ± 0.011
11 | JIMT1 BREAST | 0.964 ± 0.025 | 0.9673 ± 0.007 | 1.01 ± 0.02 | 0.983 ± 0.02 | 1.04 ± 0.048 | 1.07 ± 0.076 | 1.05 ± 0.055 | 0.982 ± 0.025 | 0.921 ± 0.046 | 0.941 ± 0.051 | 0.911 ± 0.023 | 0.9362 ± 0.0086 | 0.874 ± 0.037 | 0.927 ± 0.042 | 0.803 ± 0.011 | 0.424 ± 0.025
12 | HELA CERVIX | 0.931 ± 0.035 | 0.923 ± 0.0096 | 0.929 ± 0.023 | 0.888 ± 0.036 | 0.999 ± 0.034 | 1.02 ± 0.065 | 1.08 ± 0.069 | 1.03 ± 0.047 | 1.1 ± 0.028 | 1.1 ± 0.059 | 1.11 ± 0.045 | 1.01 ± 0.013 | 1.11 ± 0.082 | 1.15 ± 0.035 | 1.15 ± 0.038 | 1.09 ± 0.046
13 | HCC1806 BREAST | 1.01 ± 0.032 | 1.07 ± 0.067 | 1.13 ± 0.045 | 0.993 ± 0.074 | 1.14 ± 0.045 | 1.12 ± 0.049 | 1.04 ± 0.051 | 1.03 ± 0.06 | 1.08 ± 0.062 | 1.16 ± 0.14 | 1.09 ± 0.071 | 1.05 ± 0.092 | 0.528 ± 0.15 | 0.145 ± 0.041 | 0.0373 ± 0.0042 | 0.0433 ± 0.0025
14 | HS57T BREAST | 0.866 ± 0.091 | 0.918 ± 0.032 | 0.963 ± 0.033 | 0.947 ± 0.12 | 0.847 ± 0.069 | 0.955 ± 0.043 | 0.923 ± 0.068 | 0.912 ± 0.041 | 1.04 ± 0.02 | 1.09 ± 0.027 | 1.11 ± 0.019 | 1.08 ± 0.047 | 0.967 ± 0.07 | 0.72 ± 0.027 | 0.097 ± 0.0087 | 0.0793 ± 0.0038
15 | OSHN BONE | 1.04 ± 0.02 | 1.02 ± 0.019 | 1.025 ± 0.0047 | 1.01 ± 0.015 | 1.067 ± 0.0085 | 1.07 ± 0.04 | 1.07 ± 0.026 | 1.041 ± 0.0068 | 1.05 ± 0.044 | 1.077 ± 0.001 | 1.05 ± 0.018 | 1.062 ± 0.0075 | 0.959 ± 0.021 | 0.924 ± 0.017 | 0.0477 ± 0.0023 | 0.0277 ± 0.00058
16 | HOSMNG BONE | 1.02 ± 0.035 | 1.01 ± 0.023 | 1.02 ± 0.041 | 1.05 ± 0.033 | 1.11 ± 0.054 | 1.18 ± 0.088 | 1.15 ± 0.062 | 1.09 ± 0.032 | 0.954 ± 0.099 | 0.99 ± 0.083 | 0.954 ± 0.052 | 0.943 ± 0.016 | 0.992 ± 0.025 | 0.975 ± 0.076 | 0.737 ± 0.017 | 0.15 ± 0.031
17 | SCC36 HEADNECK | 0.992 ± 0.091 | 0.955 ± 0.1 | 0.957 ± 0.065 | 1.11 ± 0.068 | 1.09 ± 0.028 | 1.03 ± 0.059 | 0.924 ± 0.051 | 0.907 ± 0.099 | 0.976 ± 0.11 | 0.979 ± 0.038 | 1.07 ± 0.062 | 1.05 ± 0.12 | 0.753 ± 0.026 | 0.678 ± 0.045 | 0.282 ± 0.037 | 0.19 ± 0.025
18 | CADOES1 SOFT TISSUE | 0.925 ± 0.1 | 0.911 ± 0.12 | 0.777 ± 0.092 | 0.848 ± 0.07 | 0.871 ± 0.087 | 0.899 ± 0.093 | 0.955 ± 0.068 | 1.05 ± 0.02 | 0.973 ± 0.13 | 0.933 ± 0.073 | 0.868 ± 0.011 | 0.905 ± 0.051 | 0.88 ± 0.071 | 0.988 ± 0.13 | 0.798 ± 0.068 | 0.558 ± 0.027
19 | CME SYNOVIAL | 1.2 ± 0.075 | 0.852 ± 0.11 | 1.09 ± 0.089 | 0.18 ± 0.044 | 1.22 ± 0.053 | 1.09 ± 0.13 | 1.16 ± 0.1 | 0.451 ± 0.068 | 1.243 ± 0.0098 | 1.27 ± 0.03 | 1.3 ± 0.06 | 1.23 ± 0.059 | 1.13 ± 0.049 | 1.02 ± 0.065 | 0.733 ± 0.036 | 0.414 ± 0.0087
20 | 93VU HEADNECK | 0.848 ± 0.096 | 0.876 ± 0.058 | 1.05 ± 0.099 | 0.994 ± 0.12 | 1.07 ± 0.15 | 1.04 ± 0.22 | 0.887 ± 0.03 | 0.771 ± 0.016 | 0.976 ± 0.077 | 1 ± 0.069 | 1.07 ± 0.02 | 1.09 ± 0.087 | 0.948 ± 0.033 | 0.945 ± 0.064 | 0.741 ± 0.044 | 0.388 ± 0.05
21 | LNCAP PROSTATE | 1.05 ± 0.15 | 0.962 ± 0.035 | 0.912 ± 0.089 | 0.957 ± 0.13 | 0.979 ± 0.012 | 0.925 ± 0.053 | 0.663 ± 0.033 | 0.497 ± 0.079 | 0.922 ± 0.12 | 1.11 ± 0.11 | 0.926 ± 0.14 | 0.915 ± 0.15 | 1.23 ± 0.052 | 1.06 ± 0.12 | 0.544 ± 0.024 | 0.287 ± 0.031
